Source: patent US10450306B2, “Isoxazole analogs as FXR agonists and methods of use thereof” (Enanta Pharmaceuticals, Inc., priority 2016, dated 2019)

Target: T1, human FXR (NR1H4) (Homo sapiens, UniProt Q96RI1)
T1 construct: host or cells: CHO (Chinese hamster ovary) reporter cells
T1 sequence (Q96RI1 1-486): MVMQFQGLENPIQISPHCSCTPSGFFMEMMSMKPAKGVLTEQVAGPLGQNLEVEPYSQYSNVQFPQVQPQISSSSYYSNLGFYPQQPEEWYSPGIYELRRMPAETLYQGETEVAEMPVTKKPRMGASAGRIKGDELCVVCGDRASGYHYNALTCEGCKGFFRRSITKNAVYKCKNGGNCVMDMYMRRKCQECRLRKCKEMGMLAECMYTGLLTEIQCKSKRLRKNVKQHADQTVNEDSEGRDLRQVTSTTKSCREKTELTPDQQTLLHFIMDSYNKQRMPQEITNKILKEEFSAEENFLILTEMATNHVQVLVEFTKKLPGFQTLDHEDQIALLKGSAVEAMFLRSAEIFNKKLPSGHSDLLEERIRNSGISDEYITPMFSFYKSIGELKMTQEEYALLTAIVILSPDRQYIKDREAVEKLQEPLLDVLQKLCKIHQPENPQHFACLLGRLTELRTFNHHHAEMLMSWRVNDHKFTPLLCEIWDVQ
Experiment: Human FXR (NR1H4) Assay: Gal4 promoter driven luciferase reporter transactivation in CHO cells (Indigo Bioscience kit IB00601); for Efficacy (%): efficacy normalized to CDCA set as 100%
Format: cell-based
Details: for Emax: CHO, read-out: Efficacy (%); for EC50: Human FXR (NR1H4) reporter assay, potency ranges
Outline: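 Luminescence read-out after 22 h exposure quantified FXR transactivation; compounds were tested at several doses, 0.2% DMSO, in CHO cells engineered with human NR1H4 and a luciferase gene linked to an FXR-responsive promoter.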

| SMILES | Emax | EC50 |
| --- | --- | --- |
| O=C(O)c1cc(C2CC2)c2nc(N3C4CCC3CC(NCc3c(-c5c(F)cccc5F)noc3C3CC3)C4)sc2c1 (stereo not drawn) [Example 1419] | 107% | 0.001 to 0.1 µM |
| CC1(S(=O)(=O)NC(=O)c2ccc3nc(N4C5CCC4CC(NCc4c(-c6ccccc6C(F)(F)F)noc4C4CC4)C5)sc3c2)CC1 (stereo not drawn) [Example 1420] | 91% | 0.001 to 0.1 µM |
| CC1(S(=O)(=O)NC(=O)c2ccc3nc(N4C5CCC4CC(NCc4c(-c6c(F)cccc6F)noc4C4CC4)C5)sc3c2)CC1 (stereo not drawn) [Example 1421] | 101% | 0.001 to 0.1 µM |
| CC1(S(=O)(=O)NC(=O)c2ccc3nc(N4C5CCC4CC(NCc4c(-c6ccccc6C6CC6)noc4C4CC4)C5)sc3c2)CC1 (stereo not drawn) [Example 1422] | 94% | 0.001 to 0.1 µM |
| COC(=O)c1cc(OC(C)C)c2nc(N3C4CCC3CC(NCc3c(-c5c(F)cccc5F)noc3C3CC3)C4)sc2c1 (stereo not drawn) [Example 1423] | 78% | > 1 µM |
| O=C(NS(=O)(=O)C1CC1)c1ccc2nc(N3C4CCC3CC(NCc3c(-c5ccccc5C(F)(F)F)noc3C3CC3)C4)oc2c1 (stereo not drawn) [Example 1424] | 148% | 0.001 to 0.1 µM |
| CC1(S(=O)(=O)NC(=O)c2ccc3nc(N4C5CCC4CC(NCc4c(-c6ccccc6C(F)(F)F)noc4C4CC4)C5)oc3c2)CC1 (stereo not drawn) [Example 1425] | 74% | 0.1 to 1 µM |
| CC(C)Oc1cc(C(=O)O)cc2sc(N3C4CCC3CC(NCc3c(-c5c(F)cccc5F)noc3C3CC3)C4)nc12 (stereo not drawn) [Example 1426] | 73.2% | 0.1 to 1 µM |
| CC(C)Oc1cc(C(=O)NS(=O)(=O)C2(C)CC2)cc2sc(N3C4CCC3CC(NCc3c(-c5c(F)cccc5F)noc3C3CC3)C4)nc12 (stereo not drawn) [Example 1428] | 86% | 0.001 to 0.1 µM |
